In patent publication US10307386B2 (priority 2007, dated 2019):

Legend:
[1] = tested on: obese children who had steatosis; conditions: vitamin E 400-1000 IU/day for 4-10 months, cited from earlier work
[2] = tested on: obese individuals with NASH; conditions: treated for 4-12 weeks; no reported change in body mass index; cited from earlier work
[3] = tested on: New Zealand white rabbits fed a high fat diet (HFD); assay: 8-week study: cysteamine in drinking water in rabbits fed a high-fat diet (NAFLD/NASH model); assay type: in vivo; conditions: for mean AST value: control HFD 117.1 U/L
Source text: (§1) J. Pathol., 170(3):967-980 (2007). Male New Zealand white rabbits were fed a high-fat diet (HFD) containing 20% corn oil and 1.25% cholesterol in order to induce clinical and histological features characteristic of NAFLD and non-alcoholic steatohepatitis (NASH).
The study design included five groups of eight rabbits.
Observations during the study included twice weekly body weights, daily food and water consumption, and daily clinical observations. Blood samples were collected prior to the start of the study, and on weeks 2, 6, and 8 for a full panel of hematology parameters and a selected panel of serum chemistries, including ALT, AST, amylase, lipase, total cholesterol, triglycerides, LDH, HDL-cholesterol, and LDL-cholesterol.

leukocyte cystine = conditions: cited from earlier work
[4] = tested on: intracellular cystine (circulating white blood cells); conditions: taken regularly; measured in circulating white blood cells; cited from earlier work
[5] = tested on: New Zealand white rabbits fed a high-fat diet (HFD); assay: Pilot study: 7-day intraperitoneal cysteamine in rabbits fed a high-fat diet (NAFLD model); assay type: in vivo, rabbit; conditions: for mean LDL-cholesterol value: control HFD 272.5 mg/dL; for mean total cholesterol value: control HFD 842 mg/dL; for mean LDH value: control HFD 190 U/L; for increase in LDL-cholesterol compared to baseline values: control HFD about 29-fold; for increase in total cholesterol over baseline value: control HFD approximately 20-fold; for decrease in LDH compared to baseline values: control HFD increased 1.7-fold
Source text: as §1
Endpoints included daily standard clinical observations, quantitative daily food consumption, body weights on Study Day (SD) −1, 2, 5, and 8 (day of necropsy), and blood samples collected on SD-1 and SD8 for the evaluation of selected clinical chemistries (alanine aminotransferase (ALT), aspartate aminotransferase (AST), amylase, lipase, total cholesterol, triglycerides, lactate dehydrogenase (LDH), high density lipoprotein cholesterol (HDL-cholesterol), and low density lipoprotein cholesterol (LDL-cholesterol)) and a full hematology panel. Animals were sacrificed on SD8.

[6] = week 8, 250 mg/kg/day in drinking water
[7] = delivery of cysteamine to the small intestine

## vitamin E
[1]; decreased from 104±61 IU/L, P<0.002
  mean AST levels after treatment: 33±11 IU/L
[1]; decreased from 175±106 IU/L, P<0.01
  mean ALT levels after treatment: 40±26 IU/L

## CC(=O)N[C@@H](CS)C(=O)O [N-acetylcysteine]
[2]
  aminotransferase levels and gamma-GT: improvement

## NCCS [cysteamine]
[3]; cysteamine treated animals vs control HFD animals
  body weights: parallel those of the control HFD animals
[3]; rabbit, in vivo, 75 mg/kg/day
  animals that died on study or were sacrificed moribund: Three
[3]; rabbit, in vivo, 250 mg/kg/day
  animals sacrificed moribund: One
[3]; summary of both rabbit studies
  AST levels reduced compared to the HFD diet control animals: 1.6- to 1.9 fold
  reductions of AST compared to the HFD diet control animals: 37 to 47%
[3]; week 8, 25 mg/kg/day in drinking water
  mean AST value: 62.5 U/L
[3]; [6]
  increase in HDL-cholesterol over the HFD control mean value: 1.6 fold
  increase in HDL-cholesterol over the control standard diet value: 3.7 fold
  mean AST value: 75.7 U/L
[3]; week 8, 250 mg/kg/day in drinking water, HFD control 36.9, standard diet 15.7 mg/dL
  mean HDL-cholesterol value: 58.3 mg/dL
[3]; week 8, 250 mg/kg/day in drinking water, HFD control 375 U/L, standard diet control 125.6 U/L
  mean LDH value: 140 U/L
[3]; week 8, all three dose levels (25, 75, 250 mg/kg/day) in drinking water
  change in LDH values compared to the Group 2 HFD controls: decrease in LDH values at all three dose levels
Leukocyte cystine; delivery into the small intestine
  time to observed decrease in leukocyte cystine: within an hour
Leukocyte cystine; [7]
  AUC: increases
  Cmax: increases
[4]
  depletion of intracellular cystine: up to 90%
[5]; 75 mg/kg/day IP Q8H
  LDH as % of the control HFD values on SD8: 33%
[5]; 250 mg/kg/day IP Q8H
  LDH as % of the control HFD values on SD8: 59%
[5]; SD8, 75 mg/kg/day IP Q8H
  LDL-cholesterol: % less of an increase than the HFD controls: 23%
  total cholesterol: % less of an increase than the HFD controls: 23%
  mean LDL-cholesterol value: 210 mg/dL
  mean total cholesterol value: 652 mg/dL
  mean LDH value: 128 U/L
  increase in LDL-cholesterol compared to baseline values: about 12 fold
  increase in total cholesterol over baseline value: ~12 fold
  decrease in LDH compared to baseline values: 1.2 fold
[5]; SD8, 250 mg/kg/day IP Q8H
  LDL-cholesterol: % less of an increase than the HFD controls: 45%
  decrease in mean AST value vs control HFD group: 1.9 fold
  mean AST as % of the control HFD value: 47%
  total cholesterol: % less of an increase than the HFD control values: 59%
  mean LDL-cholesterol value: 150.5 mg/dL
  mean total cholesterol value: 347 mg/dL
  mean LDH value: 77.5 U/L
  increase in LDL-cholesterol compared to baseline values: about 14 fold
  increase in total cholesterol over baseline value: ~7.5 fold
  decrease in LDH compared to baseline values: 3.1 fold
[5]; SD8, 250 mg/kg/day IP Q8H, control HFD group 19.0 U/L
  mean AST value: 10.0 U/L
